Literature values in US20220142893A1, “THE PROCESS OF DYEING KERATINOUS MATERIAL COMPRISING THE USE OF AN ORGANOSILICON COMPOUND, TWO COLOR-IMPARTING COMPOUNDS AND A FILM-FORMING POLYMER” (Henkel AG & Co. KGaA, priority 2019, published 2022).

Settings: 25° C.

| solubility in water (in words) | SMILES | solubility in water |
| --- | --- | --- |
| – | Nc1cc(S(=O)(=O)[O-])cc2cc(S(=O)(=O)[O-])c(N=Nc3ccccc3)c(O)c12.[Na+].[Na+] [Acid Red 33, disodium salt of 5-amino-4-hydroxy-3-(phenylazo)-naphthalene-2,7-disulphonate] | 2500 µg/mL |
| – | O=S(=O)([O-])c1ccc(N=Nc2c(O)ccc3ccccc23)cc1.[Na+] [Acid Orange 7, sodium salt of 4-[(2-hydroxy-1-naphthyl)azo]benzene sulphonate] | more than 7 g/L |
| highly soluble | O=C([O-])C1=NN(c2ccc(S(=O)(=O)[O-])cc2)C(=O)C1N=Nc1ccc(S(=O)(=O)[O-])cc1.[Na+].[Na+].[Na+] (stereo not shown) [Acid Yellow 23, trisodium salt of 4,5-dihydro-5-oxo-1-(4-sulfophenyl)-4-((4-sulfophenyl)azo)-1H-pyrazole-3-carboxylic acid] | – |
| – | O=C([O-])c1c(Cl)c(Cl)c(Cl)c(Cl)c1-c1c2c(Br)cc(=O)c(Br)c-2oc2c(Br)c(O)cc(Br)c12.O=C([O-])c1c(Cl)c(Cl)c(Cl)c(Cl)c1-c1c2c(Br)cc(=O)c(Br)c-2oc2c(Br)c(O)cc(Br)c12.[Na+].[Na+] [Acid Red 92, disodium salt of 3,4,5,6-tetrachloro-2-(1,4,5,8-tetrabromo-6-hydroxy-3-oxoxanthen-9-yl)benzoic acid] | greater than 10 g/L |
